According to article PMC12344683, “N-alkyl and N-benzyl indoles are anti-SARS-CoV-2 agents and nsp13 inhibitors” (Journal of Enzyme Inhibition and Medicinal Chemistry, 2025):
Like-named read-outs stand apart in the source and are kept apart here.

How the values were obtained:
SARS-CoV-2 nsp13 [1] = biological target: T1, SARS-CoV-2 nsp13 (Severe acute respiratory syndrome coronavirus 2, UniProt P0DTD1); details: cited from earlier work
SARS-CoV-2 nsp13 [2] = biological target: T1, SARS-CoV-2 nsp13; details: SARS-CoV-2 nsp13-associated ATPase activity; cited from earlier work
SARS-CoV-2 = details: cited from earlier work
MERS-CoV = details: cited from earlier work
HCoV229E = tested on: HCoV229E; parameters: method as in PMID 37562607; details: cited from earlier work
Vero E6-GFP cells = details: cited from earlier work
SARS-CoV-2 nsp13 [3] = biological target: T1, SARS-CoV-2 nsp13; assay: SARS-CoV-2 nsp13 unwinding-associated activity (fluorescence, BSA-TCEP); format: biochemical; details: SARS-CoV-2 nsp13-associated unwinding activity, from dose-response curves
SARS-CoV-2 nsp13 [4] = biological target: T1, SARS-CoV-2 nsp13; assay: SARS-CoV-2 nsp13 ATPase-associated activity (Biomol Green, BSA-TCEP); format: biochemical; details: for IC50: SARS-CoV-2 nsp13-associated ATPase activity, from dose-response curves
[5] = Cellular toxicity assay (GFP signal as viability); format: cell-based; details: African green monkey; Vero cells; read-out: CC50, concentration required to reduce Vero cells viability by 50%
Experimental: Vero E6-green fluorescent protein (GFP) cells (Janssen Pharmaceutical were maintained in Dulbecco’s modified Eagle’s medium (DMEM, Gibco) supplemented with 10% v/v foetal beef serum (FBS, Gibco), 0.075% Sodium Bicarbonate (7.5% solution, Gibco) and 1X Pen-strep (Euroclone) and kept under 5% CO2 on 37 ◦C. The cells were seeded at 10 000 cells/well in 96-well black cell-treated plates (PerkinElmer). The following day, cells were incubated with the control compounds at different concentrations. Compound was dissolved in 0.1% DMSO. Seventy-two hours post infection the GPF signal, as direct index of cellular viability, was quantified by measuring the total-well fluorescence with a Victor 3 multiplate reader (PerkinElmer) set to excitation and emission wavelengths of 485 and 535 nm, respectively.
The percentage of induced cytopathic effects (CPE) was calculated considering the mock as 100% of cell viability, and the readout from empty wells as blank. The compound half-maximal cytopathic concentration (CC50), was determined via non-linear regression by using on Prism 9 v. 9.4.1 software (GraphPad) the built-in function dose-response inhibition, log-concentration-normalized response. Experimental points represent the average and standard deviation of at least two sets of independent triplicates.

SARS-CoV-2 nsp13 [6] = biological target: T1, SARS-CoV-2 nsp13; assay: Incubation-dependent potency of 5c on nsp13 (inhibition type); format: biochemical; details: for IC50: read-out: IC50 at time-point
[7] = SARS-CoV-2 nsp13-associated unwinding activity, read-out: IC50 unwinding
[8] = SARS-CoV-2 infected cells, read-out: EC50 SARS-CoV-2 replication
[9] = read-out: Activity in enzyme assay IC50 Unwinding BSA-TCEP
[10] = read-out: Activity in enzyme assay IC50 ATPase BSA-TCEP
[11] = read-out: EC50 antiviral activity

## O=C(/C=C(\O)C(=O)O)/C=C/c1cn(Cc2ccccc2)c2ccccc12 [compound 4]
SARS-CoV-2 nsp13 [1]; [7]
  IC50: 12.7 ± 4.9 µM
SARS-CoV-2 nsp13 [2]
  IC50: 12.8 ± 1.3 µM
SARS-CoV-2; [8]
  EC50: 1.03 ± 0.24 µM
MERS-CoV
  EC50: 6.32 µM
HCoV229E
  EC50: 1.83 µM
Vero E6-GFP cells
  CC50: > 264 µM

## CC(C)c1ccc(Cn2cc(/C=C/C(=O)/C=C(\O)C(=O)O)c3ccccc32)cc1 [5c]
SARS-CoV-2 nsp13 [3]; [9]
  IC50: 4.73 ± 0.5 µM
SARS-CoV-2 nsp13 [4]; [10]
  IC50: 1.8 ± 0.19 µM
SARS-CoV-2 nsp13 [4]; ratio of IC50 values
  higher ATPase inhibition in respect to 4: 7 fold
[5]
  CC50 at 72 h: > 100 µM
SARS-CoV-2 nsp13 [6]; 1 min after activation of the reaction with the substrate
  IC50: 0.76 µM
SARS-CoV-2 nsp13 [6]; 5 min after activation of the reaction with the substrate
  IC50: 1.64 µM
SARS-CoV-2 nsp13 [6]; 10 min after activation of the reaction with the substrate
  IC50: 2.75 µM
SARS-CoV-2 nsp13 [6]; 15 min after activation of the reaction with the substrate
  IC50: 2.94 µM
SARS-CoV-2 nsp13 [6]; 20 min after activation of the reaction with the substrate
  IC50: 2.76 µM
SARS-CoV-2 nsp13 [6]; from time-increased IC50 values
  nature of the inhibition: non-covalent/reversible
SARS-CoV-2 nsp13 [6]; pre-incubation extended to +20 min and +50 min at RT
  effect of extended pre-incubation of compound and enzyme on inhibitory potency: did not lead to an increase of the inhibitory potency

## CC(C)=CCc1c(O)cc(O)c2c(=O)cc(-c3ccc(O)cc3)oc12 [compound 2, licoflavone C]
SARS-CoV-2; [11]
  EC50: > 100 µM

## N#Cc1ccc(Cn2cc(/C=C/C(=O)/C=C(\O)C(=O)O)c3ccccc32)cc1 [5g, (2Z,5E)-6-(1-(4-cyanobenzyl)-1H-indol-3-yl)-2-hydroxy-4-oxohexa-2,5-dienoic acid]
SARS-CoV-2 nsp13 [3]; [9]
  IC50: 2.08 ± 0.04 µM
SARS-CoV-2 nsp13 [4]; [10]
  IC50: 1.91 ± 0.31 µM
[5]
  CC50 at 72 h: > 100 µM

## CC(C)=CCn1cc(/C=C/C(=O)/C=C(\O)C(=O)O)c2ccccc21 [compound 3]
SARS-CoV-2 nsp13 [1]; [7]
  IC50: 9.51 µM
SARS-CoV-2 nsp13 [2]
  IC50: 26.8 µM
SARS-CoV-2; [8]
  EC50: 4.54 µM
MERS-CoV
  EC50: 0.33 µM
HCoV229E
  EC50: 0.54 µM
Vero E6-GFP cells
  CC50: > 264 µM

## C=CCn1c(CSc2ccccc2[N+](=O)[O-])n[nH]c1=S [SSYA10-001]
SARS-CoV-2 nsp13 [1]; SARS-CoV-2 nsp13, read-out: IC50 vs unwinding
  IC50: 7.5 µM
SARS-CoV-2; [11]
  EC50: 81 µM

## O=C(/C=C(\O)C(=O)O)/C=C/c1cn(Cc2ccc(OC(F)(F)F)cc2)c2ccccc12 [5e]
SARS-CoV-2 nsp13 [3]; [9]
  IC50: 6.24 ± 0.24 µM
SARS-CoV-2 nsp13 [4]; [10]
  IC50: 6.41 ± 0.05 µM
[5]
  CC50 at 72 h: > 100 µM

## CCOC(=O)/C(O)=C/C(=O)c1cn(Cc2ccc(F)cc2)c2ccccc12 [8d, Ethyl (Z)-4-(1-(4-fluorobenzyl)-1H-indol-3-yl)-2-hydroxy-4-oxobut-2-enoate]
SARS-CoV-2 nsp13 [3]; Activity in enzyme assay IC50 Unwinding BSA-TCEP
  IC50: 1.73 ± 0.53 µM
SARS-CoV-2 nsp13 [4]; Activity in enzyme assay IC50 ATPase BSA-TCEP
  IC50: 8.7 ± 0.53 µM
[5]
  CC50 at 72 h: > 100 µM
